Assay results reported in patent US8697725B2, “Tetrahydroquinoline derivatives and their pharmaceutical use” (GlaxoSmithKline LLC, priority 2009, dated 2014).
Counter-ions that a name gives are not always drawn.

Test system: IL-6
Assay: Measurement of LPS Induced IL-6 Secretion from Whole Blood
Format: cell-based
Conditions: 24 h, LPS 200 ng/ml, immunoassay, read-out: pIC50, LPS induced IL-6 secretion from whole blood (converted)
Description: Measurement of LPS Induced IL-6 Secretion from Whole Blood
Activation of monocytic cells by agonists of toll-like receptors such as bacterial lipopolysaccharide (LPS) results in production of key inflammatory mediators including IL-6. Such pathways are widely considered to be central to the pathophysiology of a range of auto-immune and inflammatory disorders.
Compounds to be tested are diluted to give a range of appropriate concentrations of which 1 ul of the diluted stocks is added to a 96 well plate. Following addition of whole blood (130 ul) the plates are incubated at 37 degrees (5% CO2) for 30 min before the addition of 10 ul of 2.8 ug/ml LPS, diluted in complete RPMI 1640 (final concentration=200 ng/ml), to give a total volume of 140 ul per well. After further incubation for 24 hours at 37 degrees, 140 ul of PBS are added to each well. The plates are sealed, shaken for 10 minutes and then centrifuged (2500 rpm×10 min). 100 ul of the supernatant are removed and IL-6 levels assayed by immunoassay (typically by MesoScale Discovery technology) either immediately or following storage at −20 degrees. Concentration response curves for each compound was generated from the data and an IC50 value was calculated.

Q: How did the IC50 turn out when `CC(=O)N1c2ccc(-c3cn(CCCN)nn3)cc2[C@H](NC(=O)OC(C)C)C[C@@H]1C` [Example 74, 1-Methylethyl {(2S,4R)-1-acetyl-6-[1-(3-aminopropyl)-1H-1,2,3-triazol-4-yl]-2-methyl-1,2,3,4-tetrahydro-4-quinolinyl}carbamate hydrochloride] was run?
A: ≤ 31.6 µM

Q: With `CC(=O)N1c2ccc(-c3cn(CCN)cn3)cc2[C@H](NC(=O)OC(C)C)C[C@@H]1C` [Example 85, 1-Methylethyl {(2S,4R)-1-acetyl-6-[1-(2-aminoethyl)-1H-imidazol-4-yl]-2-methyl-1,2,3,4-tetrahydro-4-quinolinyl}carbamate hydrochloride] as the compound, how does the IC50 read?
A: ≤ 31.6 µM

Q: With `CC(=O)N1c2ccc(-c3ccc(CC(=O)O)cc3)cc2[C@H](NC(=O)OC(C)C)C[C@@H]1C` [Example 67, {4-[(2S,4R)-1-Acetyl-2-methyl-4-({[(1-methylethyl)oxy]carbonyl}amino)-1,2,3,4-tetrahydro-6-quinolinyl]phenyl}acetic acid] as the compound, how does the IC50 read?
A: ≤ 31.6 µM

Q: With `CC(=O)N1c2ccc(-c3cn(CCN)nn3)cc2[C@H](NC(=O)OC(C)C)C[C@@H]1C` [Example 79, 1-Methylethyl {(2S,4R)-1-acetyl-6-[1-(2-aminoethyl)-1H-1,2,3-triazol-4-yl]-2-methyl-1,2,3,4-tetrahydro-4-quinolinyl}carbamate hydrochloride] as the compound, how does the IC50 read?
A: ≤ 31.6 µM

Q: Which IC50 does the source give for `CC(=O)N1c2ccc(-n3cnc(C(=O)O)c3)cc2[C@@H](NC(=O)OC(C)C)C[C@H]1C` (racemic) [Example 87, 1-[(Cis)-1-acetyl-2-methyl-4-({[(1-methylethyl)oxy]carbonyl}amino)-1,2,3,4-tetrahydro-6-quinolinyl]-1H-imidazole-4-carboxylic acid] here?
A: ≤ 31.6 µM

Q: For `CC(=O)N1c2ccc(-c3ccccn3)cc2[C@H](NC(=O)OC(C)C)C[C@@H]1C` [Example 101, 1-Methylethyl[(2S,4R)-1-acetyl-2-methyl-6-(2-pyridinyl)-1,2,3,4-tetrahydro-4-quinolinyl]carbamate], which IC50 is on record?
A: ≤ 31.6 µM

Q: With `CC(=O)N1c2ccc(-n3cnc(C)c3)cc2[C@H](NC(=O)OC(C)C)C[C@@H]1C` (single isomer, unassigned) [Example 103] as the compound, how does the IC50 read?
A: ≤ 31.6 µM

Q: With `CC(=O)N1c2ccc(-c3noc(CCN)n3)cc2[C@H](NC(=O)OC(C)C)C[C@@H]1C` [Example 77, 1-Methylethyl {(2S,4R)-1-acetyl-6-[5-(2-aminoethyl)-1,2,4-oxadiazol-3-yl]-2-methyl-1,2,3,4-tetrahydro-4-quinolinyl}carbamate hydrochloride] as the compound, how does the IC50 read?
A: ≤ 31.6 µM

Q: With `CC(=O)N1c2ccc(-c3cn(C)cn3)cc2[C@H](NC(=O)OC(C)C)CC1C` (stereo partly drawn) [Example 83, 1-Methylethyl[(2S,4R)-1-acetyl-2-methyl-6-(1-methyl-1H-imidazol-4-yl)-1,2,3,4-tetrahydro-4-quinolinyl]carbamate hydrochloride] as the compound, how does the IC50 read?
A: ≤ 31.6 µM

Q: How did the IC50 turn out when `CC(=O)N1c2ccc(-c3noc(C)n3)cc2[C@H](NC(=O)OC(C)C)C[C@@H]1C` [Example 64, 1-Methylethyl[(2S,4R)-1-acetyl-2-methyl-6-(5-methyl-1,2,4-oxadiazol-3-yl)-1,2,3,4-tetrahydro-4-quinolinyl]carbamate] was run?
A: ≤ 31.6 µM

Q: With `CC(=O)N1c2ccc(-c3cn(CCCN(C)C)nn3)cc2[C@H](NC(=O)OC(C)C)C[C@@H]1C` [Example 81, 1-Methylethyl((2S,4R)-1-acetyl-6-{1-[3-(dimethylamino)propyl]-1H-1,2,3-triazol-4-yl}-2-methyl-1,2,3,4-tetrahydro-4-quinolinyl)carbamate formate salt] as the compound, how does the IC50 read?
A: ≤ 31.6 µM

Q: How did the IC50 turn out when `CC(=O)N1c2ccc(-c3noc(CCN(C)C)n3)cc2[C@H](NC(=O)OC(C)C)C[C@@H]1C` [Example 78, 1-Methylethyl((2S,4R)-1-acetyl-6-{5-[2-(dimethylamino)ethyl]-1,2,4-oxadiazol-3-yl}-2-methyl-1,2,3,4-tetrahydro-4-quinolinyl)carbamate hydrochloride] was run?
A: ≤ 31.6 µM

Q: For `CC(=O)N1c2ccc(-n3cnc(CO)c3)cc2[C@@H](NC(=O)OC(C)C)C[C@H]1C` (racemic) [Example 89, 1-Methylethyl {(cis)-1-acetyl-6-[4-(hydroxymethyl)-1H-imidazol-1-yl]-2-methyl-1,2,3,4-tetrahydro-4-quinolinyl}carbamate], which IC50 is on record?
A: ≤ 31.6 µM

Q: With `CC(=O)N1c2ccc(-c3ccc(CCC(=O)O)cc3)cc2[C@H](NC(=O)OC(C)C)C[C@@H]1C` [Example 102, 3-{4-[(2S,4R)-1-Acetyl-2-methyl-4-({[(1-methylethyl)oxy]carbonyl}amino)-1,2,3,4-tetrahydro-6-quinolinyl]phenyl}propanoic acid] as the compound, how does the IC50 read?
A: ≤ 31.6 µM

Q: For `CC(=O)N1c2ccc(-n3ccnc3C)cc2[C@H](NC(=O)OC(C)C)C[C@@H]1C` [Example 88, 1-Methylethyl[(2S,4R)-1-acetyl-2-methyl-6-(2-methyl-1H-imidazol-1-yl)-1,2,3,4-tetrahydro-4-quinolinyl]carbamate], which IC50 is on record?
A: ≤ 31.6 µM

Q: How did the IC50 turn out when `CC(=O)N1c2ccc(-c3ncc[nH]3)cc2[C@H](NC(=O)OC(C)C)C[C@@H]1C` [Example 86, 1-Methylethyl[(2S,4R)-1-acetyl-6-(1H-imidazol-2-yl)-2-methyl-1,2,3,4-tetrahydro-4-quinolinyl]carbamate] was run?
A: ≤ 31.6 µM

Q: `CC(=O)N1c2ccc(-n3cnc(C)c3)cc2[C@H](NC(=O)OC(C)(C)C)C[C@@H]1C` (relative stereo) [Example 123, 1,1-Dimethylethyl[(cis)-1-acetyl-2-methyl-6-(4-methyl-1H-imidazol-1-yl)-1,2,3,4-tetrahydro-4-quinolinyl]carbamate] was tested. Which IC50 did it give?
A: ≤ 31.6 µM

Q: For `CC(=O)N1c2ccc(-c3cncn3C)cc2[C@H](NC(=O)OC(C)C)C[C@@H]1C` [Example 82, 1-Methylethyl[(2S,4R)-1-acetyl-2-methyl-6-(1-methyl-1H-imidazol-5-yl)-1,2,3,4-tetrahydro-4-quinolinyl]carbamate], which IC50 is on record?
A: ≤ 31.6 µM

Q: For `CC(=O)N1c2ccc(-c3nc(CCN)no3)cc2[C@H](NC(=O)OC(C)C)C[C@@H]1C` [Example 70, 1-Methylethyl {(2S,4R)-1-acetyl-6-[3-(2-aminoethyl)-1,2,4-oxadiazol-5-yl]-2-methyl-1,2,3,4-tetrahydro-4-quinolinyl}carbamate hydrochloride], which IC50 is on record?
A: ≤ 31.6 µM

Q: For `CNCCc1noc(-c2ccc3c(c2)[C@H](NC(=O)OC(C)C)C[C@H](C)N3C(C)=O)n1` [Example 71, 1-Methylethyl((2S,4R)-1-acetyl-2-methyl-6-{3-[2-(methylamino)ethyl]-1,2,4-oxadiazol-5-yl}-1,2,3,4-tetrahydro-4-quinolinyl)carbamate hydrochloride], which IC50 is on record?
A: ≤ 31.6 µM

Q: Which IC50 does the source give for `CC(=O)N1c2ccc(-c3noc(CN)n3)cc2[C@H](NC(=O)OC(C)C)C[C@@H]1C` [Example 66, 1-Methylethyl {(2S,4R)-1-acetyl-6-[5-(aminomethyl)-1,2,4-oxadiazol-3-yl]-2-methyl-1,2,3,4-tetrahydro-4-quinolinyl}carbamate hydrochloride] here?
A: ≤ 31.6 µM

Q: `CC(=O)N1c2ccc(-c3ccc(CCN)cc3)cc2[C@H](NC(=O)OC(C)C)C[C@@H]1C` [Example 96, 1-Methylethyl {(2S,4R)-1-acetyl-6-[4-(2-aminoethyl)phenyl]-2-methyl-1,2,3,4-tetrahydro-4-quinolinyl}carbamate hydrochloride] was tested. Which IC50 did it give?
A: ≤ 31.6 µM

Q: Which IC50 does the source give for `CC(=O)N1c2ccc(-c3ccccc3)cc2[C@H](NC(=O)OC(C)C)C[C@@H]1C` [Example 94, 1-Methylethyl[(2S,4R)-1-acetyl-2-methyl-6-phenyl-1,2,3,4-tetrahydro-4-quinolinyl]carbamate] here?
A: ≤ 31.6 µM
